The values below come from publication PMC8175350, “Drug repurposing screens identify chemical entities for the development of COVID-19 interventions” (Nature Communications, 2021).

Usually CC50 stands for the concentration giving 50% cytotoxicity. As usually defined, the pEC50 is the EC50 on a negative log10 scale, so that one unit is a factor of ten. As usually defined, the EC50 is the midpoint of the concentration-response curve. What is called Cmax is the peak of the concentration-time curve.

pEC50: −log10 of the molar value. Like-named read-outs stand apart in the source and are kept apart here.

The test system of series [1] is HeLa-ACE2 cells. The series can be described thus: Uninfected HeLa-ACE2 24 h live/dead cytotoxicity counter screen. It is filed as cell-based, human.
The subject of series [2] is Calu-3 cells. The series can be described thus: Uninfected Calu-3 48 h Cell-Titer Glo cytotoxicity counter screen. The settings on record: for Calu-3 uninfected cytotoxicity Sinf Average: curve-fit effect at infinite concentration.
Series [3] deals with SARS-CoV-2. Description: microbe, parasite or virus in culture. It is filed as cell-based.
The subject of series [4] is Calu-3 cells. To be noted: for Calu-3 cell count Sinf Average: curve-fit effect at infinite concentration; for pEC50: read-out: Calu-3 cell count EC50 GeoMean.
The subject of series [5] is SARS-CoV-2. The series can be described thus: microbe, parasite or virus in culture. It is filed as cell-based. To be noted: for HeLa-ACE2 CoV-2 Sinf Average: curve-fit effect at infinite concentration.
Series [6] concerns HeLa-ACE2 cells. To be noted: for HeLa-ACE2 cell count Sinf Average: curve-fit effect at infinite concentration; for pEC50: read-out: HeLa-ACE2 cell count EC50 GeoMean, unrounded geometric mean.
The nature of series [7]: Uninfected HeLa-ACE2 24 h live/dead cytotoxicity counter screen. The settings on record: human, uninfected HeLa-ACE2 cells, geometric mean of replicates; read-out: HeLa-ACE2 uninfected cytotoxicity CC50 GeoMean. It is filed as cell-based, human. A general note: Counterscreens check selectivity or assay interference.
For series [8], the system named is HeLa-ACE2 cells. The series can be described thus: cells. To be noted: Homo sapiens, HeLa-ACE2, read-out: HeLa-ACE2 cell count EC50 GeoMean (µM), geometric mean of replicates.
For series [9], the system named is Calu-3 cells.
The test system of series [10] is Calu-3 cells. The series can be described thus: cells. To be noted: Homo sapiens.
The next series can be described thus: in vitro. To be noted: human, Calu-3 uninfected cytotoxicity CC50 GeoMean (µM).
Series [11] relates to SARS-CoV-2. It is filed as cell-based. The settings on record: combination with remdesivir, synergy score δ.
The subject of series [12] is SARS-CoV-2. The series can be described thus: microbe, parasite or virus in culture. It is filed as cell-based. The settings on record: read-out: HeLa-ACE2 TOA CoV-2 EC50 GeoMean.
For series [13], the system named is HeLa-ACE2 cells. Description: Total cell count in the HeLa-ACE2 TOA assay. It is filed as cell-based. To be noted: Homo sapiens, HeLa-ACE2, read-out: HeLa-ACE2 TOA cell count EC50 GeoMean. The text has this: Supplement 41467_2021_23328_MOESM3_ESM.xlsx, sheet "Table S1" | column: HeLa-ACE2 TOA cell count
A further series concerns HepG2. To be noted: human, 72 h.
The next series has as its system HEK293T. The settings on record: human, 72 h.
The conditions of series [14]: human, cited from earlier work.
[15] abbreviates: curve-fit effect at infinite concentration, average.
[16] abbreviates: unrounded geometric mean, read-out: HeLa-ACE2 uninfected cytotoxicity CC50 GeoMean.
[17] abbreviates: read-out: Calu-3 uninfected cytotoxicity CC50 GeoMean, unrounded geometric mean.
The mark [18] stands for this setting: unrounded geometric mean, read-out: Calu-3 CoV-2 EC50 GeoMean.
[19] abbreviates: unrounded geometric mean, read-out: HeLa-ACE2 CoV-2 EC50 GeoMean.

Take `NS(=O)(=O)c1ccc(N2N=C(C(F)(F)F)CC2c2c[nH]c3c(Cl)cccc23)cc1` (stereo not drawn) [ON-09310]: in the series with HeLa-ACE2 cells [1] (setting [15]), the “HeLa-ACE2 uninfected cytotoxicity Sinf Average” value is listed as -103%. Also, the CC50 turned out to be 8.2 µM with HeLa-ACE2 cells [1] (setting [16]) and 16.9 µM in the series with Calu-3 cells [2] (setting [17]). The “Calu-3 uninfected cytotoxicity Sinf Average” value in the series with Calu-3 cells [2] is on record as -97%. Further, in the series on SARS-CoV-2 [3] (setting [15]), the “Calu-3 CoV-2 Sinf Average” value is listed as -95%. Further, the pEC50 with SARS-CoV-2 [3] (setting [18]) was 5.74; in the series with Calu-3 cells [4] (unrounded geometric mean), less than 5.08; in the series on SARS-CoV-2 [5] (setting [19]) it was 5.43; in the series on HeLa-ACE2 cells [6], less than 5.03. Further, the “Calu-3 cell count Sinf Average” value in the series with Calu-3 cells [4] amounted to 100%. The “HeLa-ACE2 CoV-2 Sinf Average” value with SARS-CoV-2 [5] is -100%. Besides, in the series on HeLa-ACE2 cells [6], the “HeLa-ACE2 cell count Sinf Average” value is -100%.

Take `CC/C(=C(/c1ccc(/C=C/C(=O)O)cc1)c1ccc2[nH]ncc2c1)c1ccc(F)cc1Cl` [ARN-810]: in the series on HeLa-ACE2 cells [1] (Sinf average of the curves), the “HeLa-ACE2 uninfected cytotoxicity Sinf Average (%)” value is on record as -99%. The CC50 at 24 h in [7] amounted to 11 µM. The EC50 was more than 9.59 µM in the series with HeLa-ACE2 cells [8] and more than 3.06 µM in the series with Calu-3 cells [10] (Calu-3, read-out: Calu-3 cell count EC50 GeoMean (µM), geometric mean of replicates). Moreover, in the series with Calu-3 cells [9], the “uninfected Calu-3 CC50 [μM]” value is reported as > 23.843 ×÷ 1.22 (n=3) μM. Besides, the “Calu-3 uninfected cytotoxicity Sinf Average (%)” value in the series with Calu-3 cells [9] (human, 48 h) was -89%. Moreover, the Emax in the series with Calu-3 cells [10] (Calu-3, 48 h, read-out: Calu-3 cell count Sinf Average (%)) was 79%; with SARS-CoV-2 [3] (Severe acute respiratory syndrome coronavirus 2, Calu-3, 48 h, Sinf average of the curves, read-out: Calu-3 CoV-2 Sinf Average (%)), 71%. Moreover, the pEC50 in the series on SARS-CoV-2 [3] (Severe acute respiratory syndrome coronavirus 2, Calu-3, geometric mean of replicates, read-out: Calu-3 CoV-2 EC50 GeoMean) is 5.96; in the series on SARS-CoV-2 [5] (Severe acute respiratory syndrome coronavirus 2, HeLa-ACE2, geometric mean of replicates, read-out: HeLa-ACE2 CoV-2 EC50 GeoMean), less than 5.02. The CC50 at 48 h in the series “in vitro” is more than 23.8 µM. The “HeLa-ACE2 cell count Sinf Average (%)” value in the series on HeLa-ACE2 cells [6] (Sinf average of the curves) is listed as -100%.

For `Cc1cccc(/C=N/Nc2cc(N3CCOCC3)nc(OCCc3ccccn3)n2)c1` [Apilimod - control], the “HeLa-ACE2 uninfected cytotoxicity Sinf Average” value with HeLa-ACE2 cells [1] (curve plateau at infinite concentration) was -100%. The CC50 with HeLa-ACE2 cells [1] (read-out: HeLa-ACE2 uninfected cytotoxicity CC50 GeoMean) was more than 11.5 µM. Moreover, the “HeLa-ACE2 synergy score with remdesivi [δ]” value in the series on SARS-CoV-2 [11] is 3.568. Further, the pEC50 with SARS-CoV-2 [12] is less than 5.62; with HeLa-ACE2 cells [13], less than 5.62; in the series with SARS-CoV-2 [3] (read-out: Calu-3 CoV-2 EC50 GeoMean), 5.73; with Calu-3 cells [4], less than 5.60; in the series on SARS-CoV-2 [5] (read-out: HeLa-ACE2 CoV-2 EC50 GeoMean) it was 7.96. In addition, in the series with HepG2, the “HepG2 72-hour cytotoxicity Sinf Average” value is listed as -69%. Further, the Emax in the series with SARS-CoV-2 [5] (Severe acute respiratory syndrome coronavirus 2, HeLa-ACE2, 24 h, curve plateau at infinite concentration, read-out: HeLa-ACE2 CoV-2 Sinf Average) amounted to 95%. In the series with HEK293T, the “HEK293T 72-hour cytotoxicty Sinf Average” value was -79%.

With Mitoguazone, in the series with HeLa-ACE2 cells [1] (setting [15]), the “HeLa-ACE2 uninfected cytotoxicity Sinf Average” value is given as -99%. Also, the CC50 was more than 40 µM with HeLa-ACE2 cells [1] (reconfirmed hits, read-out: HeLa-ACE2 Uninf. cells CC50); more than 39.8 µM in the series on HeLa-ACE2 cells [1] (setting [16]); more than 30 µM in the series with Calu-3 cells [2] (read-out: Calu-3 Uninf. cells CC50, reconfirmed hits); more than 29.9 µM with Calu-3 cells [2] (setting [17]). In the series on SARS-CoV-2 [3] (setting [15]), the “Calu-3 CoV-2 Sinf Average” value is reported as -94%. The pEC50 is 6.35 in the series on SARS-CoV-2 [3] (reconfirmed hits, read-out: Calu-3 SARS-CoV-2 EC50); 6.35 in the series with SARS-CoV-2 [3] (setting [18]); less than 5.39 in the series with Calu-3 cells [4] (unrounded geometric mean); less than 5.02 in the series on SARS-CoV-2 [5] (reconfirmed hits, read-out: HeLa-ACE2 SARS-CoV-2 EC50); less than 5.02 in the series on SARS-CoV-2 [5] (setting [19]). Moreover, the “Approx. t1/2” value in series [14] (ref [33]-[49]) is 175 h. Further, the Cmax in series [14] (read-out: Approx. Cmax, IV, ref [44]) was 120 µM. Further, in the series on Calu-3 cells [4], the “Calu-3 cell count Sinf Average” value came out at 71%. In addition, in the series on SARS-CoV-2 [5], the “HeLa-ACE2 CoV-2 Sinf Average” value is on record as -100%.

Turning to Oligomycin A, the pEC50 with SARS-CoV-2 [3] (setting [18]) was more than 8.13; in the series with Calu-3 cells [4] (unrounded geometric mean), less than 6.66; with SARS-CoV-2 [5] (setting [19]) it was less than 5.02; with HeLa-ACE2 cells [6], less than 5.02. In addition, in the series on Calu-3 cells [4], the “Calu-3 cell count Sinf Average” value amounted to 50%.

Regarding `CCN(CC)CCCNc1nccc2c(C)c3[nH]c4ccc(O)cc4c3c(C)c12` [SR-26050], the “HeLa-ACE2 uninfected cytotoxicity Sinf Average” value with HeLa-ACE2 cells [1] (setting [15]) is -98%. For the same compound, the CC50 came out at 0.602 µM in the series on HeLa-ACE2 cells [1] (setting [16]) and 5.84 µM with Calu-3 cells [2] (setting [17]). In the series on Calu-3 cells [2], the “Calu-3 uninfected cytotoxicity Sinf Average” value is on record as -100%. Further, the “Calu-3 CoV-2 Sinf Average” value with SARS-CoV-2 [3] is -103%. In addition, the pEC50 in the series on SARS-CoV-2 [3] (setting [18]) was 6.30; with Calu-3 cells [4] (unrounded geometric mean) it was less than 5.00; in the series with SARS-CoV-2 [5] (setting [19]), 6.45; in the series on HeLa-ACE2 cells [6], 6.32. In the series on SARS-CoV-2 [5], the “HeLa-ACE2 CoV-2 Sinf Average” value was -101%. Further, the “HeLa-ACE2 cell count Sinf Average” value in the series with HeLa-ACE2 cells [6] is -103%.
